Data on 20 molecules can be found in US12331026B2 (NiKang Therapeutics, Inc., priority 2022, dated 2025).

This assay has as its target T1, CDK2 (Homo sapiens, UniProt P24941).
T1 construct: endogenous in cells; host or cells: OVCAR3 cells
Briefly: Phospho-RB measurement in OVCAR3 cells (HTRF phospho-RB S807/811). It counts as cell-based. The note with it: phosphorylation of RB protein at S807/811, HTRF, 24 h compound treatment, 0.3 to 10,000 nM, read-out: pRb (uM). Summed up:
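IC50 values come from four-parameter logistic fits of the DMSO-normalised 665/620 nm TR-FRET ratio for phospho-RB (S807/811). Antibody detection ran 4 h at room temperature.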
Background: Time-resolved FRET reads energy transfer from a long-lived donor to a nearby acceptor.

As to `CC1CN(C)CC(C)N1c1nc(-c2cccc(NS(=O)(=O)c3c(F)cccc3F)c2F)c(-c2ccnc(NC3CC4(C3)CS(=O)(=O)C4)n2)s1` (centres unmarked) [Example 53, N-(3-(5-(2-((2,2-dioxido-2-thiaspiro[3.3]heptan-6-yl)amino)-pyrimidin-4-yl)-2-(2,4,6-trimethylpiperazin-1-yl)thiazol-4-yl)-2-fluorophenyl)-2,6-difluorobenzenesulfonamide], the IC50 came out at 0.04 µM.

For `O=S1(=O)CC2(CC(Nc3nccc(-c4sc(N5C6CCC5CN(CC(F)(F)F)C6)nc4-c4cccc(NS(=O)(=O)c5c(F)cccc5F)c4F)n3)C2)C1` [Example 139, N-(3-(5-(2-((2,2-dioxido-2-thiaspiro[3.3]heptan-6-yl)amino)-pyrimidin-4-yl)-2-(3-(2,2,2-trifluoroethyl)-3,8-diazabicyclo-[3.2.1]octan-8-yl)thiazol-4-yl)-2-fluorophenyl)-2,6-difluoro-benzenesulfonamide], the IC50 worked out at 0.13 µM.

Consider `CC1(C#N)CC(N2CC3CCC(C2)N3c2nc(-c3cccc(NS(=O)(=O)c4c(F)cccc4F)c3F)c(-c3ccnc(NC4CC5(C4)CS(=O)(=O)C5)n3)s2)C1` (centres unmarked) [Example 49, N-(3-(2-(3-(3-cyano-3-methylcyclobutyl)-3,8-diazabicyclo-[3.2.1]octan-8-yl)-5-(2-((2,2-dioxido-2-thiaspiro[3.3]heptan-6-yl)amino)pyrimidin-4-yl)thiazol-4-yl)-2-fluorophenyl)-2,6-difluorobenzenesulfonamide], for which the IC50 was found to be 1.13 µM.

As to `O=S1(=O)CC2(CC(Nc3nccc(-c4sc(C56CC(C(F)(F)F)(C5)C6)nc4-c4cccc(NS(=O)(=O)c5c(F)cccc5F)c4F)n3)C2)C1` [Example 39, N-(3-(5-(2-((2,2-dioxido-2-thiaspiro[3.3]heptan-6-yl)amino)-pyrimidin-4-yl)-2-(3-(trifluoromethyl)bicyclo[1.1.1]pentan-1-yl)thiazol-4-yl)-2-fluorophenyl)-2,6-difluorobenzenesulfonamide], the IC50 was 0.35 µM.

For `CN1C2CCC1CN(c1nc(-c3cccc(NS(=O)(=O)c4c(F)cccc4F)c3F)c(-c3ccnc(NC4CC5(C4)CS(=O)(=O)C5)n3)s1)C2` [Example 23, N-(3-(5-(2-((2,2-dioxido-2-thiaspiro[3.3]heptan-6-yl)amino)pyrimidin-4-yl)-2-(8-methyl-3,8-diazabicyclo[3.2.1]octan-3-yl)thiazol-4-yl)-2-fluorophenyl)-2,6-difluorobenzenesulfonamide], the IC50 was determined as 1.74 µM.

Regarding `C[C@H]1CN(C)C[C@H](C)N1c1nc(-c2cccc(NS(=O)(=O)c3c(F)cccc3C(F)(F)F)c2F)c(-c2ccnc(NC3CC4(C3)CS(=O)(=O)C4)n2)s1` [Example 70, N-(3-(5-(2-((2,2-dioxido-2-thiaspiro[3.3]heptan-6-yl)amino)-pyrimidin-4-yl)-2-((2S,6S)-2,4,6-trimethylpiperazin-1-yl)thiazol-4-yl)-2-fluorophenyl)-2-fluoro-6-(trifluoromethyl)benzenesulfonamide], the IC50 was determined as 0.03 µM.

For the molecule `O=S1(=O)C[C@@H]2[C@H](C1)[C@H]2Nc1nccc(-c2sc(N3C4CCC3CN(C3CC3)C4)nc2-c2cccc(NS(=O)(=O)c3c(F)cccc3F)c2F)n1` [Example 127, N-(3-(2-(3-cyclopropyl-3,8-diazabicyclo[3.2.1]octan-8-yl)-5-(2-(((1R,5S,6r)-3,3-dioxido-3-thiabicyclo[3.1.0]hexan-6-yl)amino)-pyrimidin-4-yl)thiazol-4-yl)-2-fluorophenyl)-2,6-difluorobenzene-sulfonamide], the IC50 is 0.06 µM.

Take `O=S1(=O)C[C@@H]2[C@H](C1)[C@@H]2Nc1nccc(-c2sc(N3C4CCC3CN(C3CC(F)(F)C3)C4)nc2-c2cccc(NS(=O)(=O)c3c(F)cccc3F)c2F)n1` [Example 106, N-(3-(2-(3-(3,3-difluorocyclobutyl)-3,8-diazabicyclo[3.2.1]octan-8-yl)-5-(2-(((1R,5S,6s)-3,3-dioxido-3-thiabicyclo[3.1.0]hexan-6-yl)amino)pyrimidin-4-yl)thiazol-4-yl)-2-fluorophenyl)-2,6-difluorobenzenesulfonamide]: the IC50 was 0.68 µM.

On to `C[C@H]1COC[C@H](C)N1c1nc(-c2cccc(NS(=O)(=O)c3c(F)cccc3C(F)(F)F)c2F)c(-c2ccnc(N[C@H]3[C@@H]4CS(=O)(=O)C[C@@H]43)n2)s1` [Example 114, N-(3-(2-((3S,5S)-3,5-dimethylmorpholino)-5-(2-(((1R,5S,6r)-3,3-dioxido-3-thiabicyclo[3.1.0]hexan-6-yl)amino)pyrimidin-4-yl)thiazol-4-yl)-2-fluorophenyl)-2-fluoro-6-(trifluoromethyl)benzenesulfonamide], for which the IC50 came to 0.3 µM.

In the case of `O=S1(=O)C[C@@H]2[C@H](C1)[C@@H]2Nc1nccc(-c2sc(C34CCC(CC3)C4)nc2-c2cccc(NS(=O)(=O)c3c(F)cccc3F)c2F)n1` [Example 73, N-(3-(2-(bicyclo[2.2.1]heptan-1-yl)-5-(2-(((1R,5S,6s)-3,3-dioxido-3-thiabicyclo[3.1.0]hexan-6-yl)amino)pyrimidin-4-yl)thiazol-4-yl)-2-fluorophenyl)-2,6-difluorobenzenesulfonamide], the IC50 was determined as 0.6 µM.

With `O=S1(=O)C[C@@H]2[C@H](C1)[C@H]2Nc1nccc(-c2sc(C34CCC(CC3)C4)nc2-c2cccc(NS(=O)(=O)c3c(F)cccc3F)c2F)n1` [Example 99, N-(3-(2-(bicyclo[2.2.1]heptan-1-yl)-5-(2-(((1R,5S,6r)-3,3-dioxido-3-thiabicyclo[3.1.0]hexan-6-yl)amino)pyrimidin-4-yl)thiazol-4-yl)-2-fluorophenyl)-2,6-difluorobenzenesulfonamide], the IC50 was 0.06 µM.

As for `O=S1(=O)CC2(CC(Nc3nccc(-c4sc(N5C6CCC5CN(C5CCOCC5)C6)nc4-c4cccc(NS(=O)(=O)c5c(F)cccc5F)c4F)n3)C2)C1` [Example 148, N-(3-(5-(2-((2,2-dioxido-2-thiaspiro[3.3]heptan-6-yl)amino)pyrimidin-4-yl)-2-(3-(tetrahydro-2H-pyran-4-yl)-3,8-diazabicyclo[3.2.1]octan-8-yl)thiazol-4-yl)-2-fluorophenyl)-2,6-difluorobenzenesulfonamide], the IC50 came out at 0.4 µM.

Regarding `O=S1(=O)CCC(N2CC3CCC(C2)N3c2nc(-c3cccc(NS(=O)(=O)c4c(F)cccc4F)c3F)c(-c3ccnc(NC4CC5(C4)CS(=O)(=O)C5)n3)s2)CC1` [Example 38, N-(3-(5-(2-((2,2-dioxido-2-thiaspiro[3.3]heptan-6-yl)amino)-pyrimidin-4-yl)-2-(3-(1,1-dioxidotetrahydro-2H-thiopyran-4-yl)-3,8-diazabicyclo[3.2.1]octan-8-yl)thiazol-4-yl)-2-fluorophenyl)-2,6-difluorobenzenesulfonamide], the IC50 worked out at 8.12 µM.

For `O=S1(=O)CC2(CC(Nc3nccc(-c4sc(C56CCC(CC5)CC6)nc4-c4cccc(NS(=O)(=O)c5c(F)cccc5F)c4F)n3)C2)C1` [Example 10, N-(3-(2-(bicyclo[2.2.2]octan-1-yl)-5-(2-((2,2-dioxido-2-thiaspiro[3.3]heptan-6-yl)amino)pyrimidin-4-yl)thiazol-4-yl)-2-fluorophenyl)-2,6-difluorobenzenesulfonamide], the IC50 was found to be 0.055 µM.

Regarding `O=S1(=O)C[C@@H]2[C@H](C1)[C@H]2Nc1nccc(-c2sc(C3(C(F)F)CC3)nc2-c2cccc(NS(=O)(=O)c3c(F)cccc3OC(F)F)c2F)n1` [Example 129, 2-(difluoromethoxy)-N-(3-(2-(1-(difluoromethyl)cyclopropyl)-5-(2-(((1R,5S,6r)-3,3-dioxido-3-thiabicyclo[3.1.0]hexan-6-yl)amino)-pyrimidin-4-yl)thiazol-4-yl)-2-fluorophenyl)-6-fluorobenzene-sulfonamide], the IC50 is 0.09 µM.

Consider `C[C@H]1COC[C@H](C)N1c1nc(-c2cccc(NS(=O)(=O)c3c(F)cccc3F)c2F)c(-c2ccnc(N[C@H]3[C@@H]4CS(=O)(=O)C[C@@H]43)n2)s1` [Example 101, N-(3-(2-((3S,5S)-3,5-dimethylmorpholino)-5-(2-(((1R,5S,6r)-3,3-dioxido-3-thiabicyclo[3.1.0]hexan-6-yl)amino)pyrimidin-4-yl)thiazol-4-yl)-2-fluorophenyl)-2,6-difluorobenzenesulfonamide], for which the IC50 was determined as 0.17 µM.

Take `O=S1(=O)CC2(CC(Nc3nccc(-c4sc(C56CC(C5)C6)nc4-c4cccc(NS(=O)(=O)c5c(F)cccc5C(F)(F)F)c4F)n3)C2)C1` [Example 26, N-(3-(2-(bicyclo[1.1.1]pentan-1-yl)-5-(2-((2,2-dioxido-2-thiaspiro[3.3]heptan-6-yl)amino)pyrimidin-4-yl)thiazol-4-yl)-2-fluorophenyl)-2-fluoro-6-(trifluoromethyl)benzenesulfonamide]: the IC50 worked out at 0.016 µM.

With `CC1(C)CCN1c1nc(-c2cccc(NS(=O)(=O)c3c(F)cccc3F)c2F)c(-c2ccnc(N[C@H]3[C@@H]4CS(=O)(=O)C[C@@H]43)n2)s1` [Example 100, N-(3-(2-(2,2-dimethylazetidin-1-yl)-5-(2-(((1R,5S,6r)-3,3-dioxido-3-thiabicyclo[3.1.0]hexan-6-yl)amino)pyrimidin-4-yl)thiazol-4-yl)-2-fluorophenyl)-2,6-difluorobenzenesulfonamide], the IC50 came out at 0.1 µM.

Regarding `C[C@H]1COC[C@H](C)N1c1nc(-c2cccc(NS(=O)(=O)c3c(F)cccc3C(F)(F)F)c2F)c(-c2ccnc(NC3CC4(C3)CS(=O)(=O)C4)n2)s1` [Example 79, N-(3-(2-((3S,5S)-3,5-dimethylmorpholino)-5-(2-((2,2-dioxido-2-thiaspiro[3.3]heptan-6-yl)amino)pyrimidin-4-yl)thiazol-4-yl)-2-fluorophenyl)-2-fluoro-6-(trifluoromethyl)benzenesulfonamide], the IC50 is 0.06 µM.

As to `CS(=O)(=O)[C@H]1CC[C@H](Nc2nccc(-c3sc(C4(C(F)(F)F)CC4)nc3-c3cccc(NS(=O)(=O)c4c(F)cccc4C(F)(F)F)c3F)n2)CC1` [Example 104, 2-fluoro-N-(2-fluoro-3-(5-(2-(((1r,4r)-4-(methylsulfonyl)-cyclohexyl)amino)pyrimidin-4-yl)-2-(1-(trifluoromethyl)-cyclopropyl)thiazol-4-yl)phenyl)-6-(trifluoromethyl)benzenesulfonamide], the IC50 was found to be 0.08 µM.
